The results in this text go back to US20250018068A1, “4H-IMIDAZO[1,5-B]PYRAZOLE DERIVATIVES FOR DIAGNOSIS” (AC IMMUNE SA, priority 2021, published 2025).

Where a name gives a salt, the structure may show the parent alone.

The target of assay [1] is T1, PD brain-derived alpha-synuclein aggregates (Homo sapiens, UniProt P37840).
T1 construct: from tissue; host or cells: human PD donor brain, sarkosyl-insoluble pellet
Nature of the assay: Micro-radiobinding competition assay for the determination of binding affinity. The note with it: human PD brain-derived alpha-synuclein aggregates; for inhibition at 0.1 µM: 100 nM non-radiolabelled compound, read-out: Micro-radiobinding competition assay Competition at 100 nM (%); for inhibition at 0.1 µM / inhibition at 1 µM: competition over tritiated [3H]-Example-1 ligand; for inhibition at 1 µM: 1 μM non-radiolabelled compound, read-out: Micro-radiobinding competition assay Competition at 1 μM (%). The protocol:
The procedure was adapted from the protocol described in Spillantini et al., 1998. Frozen tissue blocks from PD donors were thawed on ice and homogenized using a glass dounce homogenizer. The homogenate was then centrifuged at 11,000×g (12,700 RPM) in an ultracentrifuge (Beckman, XL100K) for 20 minutes at 4° C. using a pre-cooled 70.1 rotor (Beckman, 342184). Pellets were resuspended in extraction buffer [10 mM Tris-HCl pH 7.4, 10% sucrose, […], 1% protease inhibitor (Calbiochem 539131), 1 mM EGTA, 1% phosphatase inhibitor (Sigma P5726 and P0044)] and centrifuged at 15,000×g (14,800 RPM, a 70.1 Ti rotor) for 20 minutes at 4° C. Pellets were discarded and sarkosyl (20% stock solution, Sigma L7414) was added to the supernatants to a final concentration of 1% at room temperature for one hour. This solution was then centrifuged at 100,000×g (38,000 RPM, 70.1 Ti rotor) for one hour at 4° C. Pellets containing enriched alpha-synuclein aggregates were resuspended in PBS and stored at −80° C. until use.
PD brain-derived alpha-synuclein aggregates were spotted onto microarray slides. The slides were incubated with [^3H]-alpha-synuclein reference at 6 nM or 20 nM and the example compounds (non-radiolabelled) at 1 μM and 100 nM. In some cases, the non-radiolabelled example compounds were further assessed for a range of different concentrations, varying from 0.05 nM to 2 μM. After incubation, slides were washed and scanned by a real-time autoradiography system (BeaQuant, ai4R). Quantification of the signal was performed by using the Beamage image analysis software (ai4R). Non-specific signal was determined with an excess of non-radiolabelled Example-1 (2 μM) and specific binding was calculated by subtracting the non-specific signal from the total signal. Competition was calculated as percent, where 0% was defined as the specific binding in the presence of vehicle and 100% as the values obtained in the presence of excess of the non-radiolabelled Example-1. Ki values were calculated in GraphPad Prism7 by applying a nonlinear regression curve fit using a one site, specific binding model. All measurements were performed with at least two technical replicates. For compounds tested in more than one experiment, the mean of the replicates or Ki values in independent experiments is reported.
Results: Example compounds were assessed for their potency to compete with the binding of [^3H]-reference alpha-synuclein ligand to PD patient brain-derived alpha-synuclein aggregates. Results of the micro-radiobinding competition assay for the example compounds tested are shown in Table 3 as: % competition at 1 μM and 100 nM.
Table 3: Assessment of binding affinity by micro-radiobinding competition assay on human PD brain-derived alpha-synuclein aggregates. Percent (%) competition over the tritiated [^3H]-Example-1 ligand in the presence of 1 μM and 100 nM of example compounds 1-9. Ki values are also shown for selected example compounds. *, mean of Ki values in two independent experiments using PD brain-derived homogenates from two different donors.

Assay [2] has as its target T2, Abeta pathological aggregates (Homo sapiens, UniProt P05067).
T2 construct: Abeta pathological aggregates present in the human AD brain homogenates; from tissue; host or cells: human AD donor brain, Triton/sucrose-insoluble fraction
Nature of the assay: Radiobinding competition assay on AD brain homogenates, displacement of [3H]-Abeta-Ref. Format: binding. The method, then:
The procedure was adapted from the protocol described in Bagchi et al., 2013. Frozen tissue blocks from AD donors were thawed on ice and homogenized in high salt buffer (50 mM Tris-HCl pH 7.5, 0.75M NaCl, 5 mM EDTA) supplemented with protease inhibitors (Complete; Roche 11697498001) at 4° C. using a glass Dounce homogenizer. The homogenate was centrifuged at 100,000×g (38,000 RPM) in an ultracentrifuge (Beckman, XL100K) for one hour at 4° C. using a pre-cooled 70.1 rotor (Beckman, 342184). Pellets were resuspended in high salt buffer supplemented with 1% Triton X-100 and homogenized at 4° C. using a glass Dounce homogenizer. […]
A fixed concentration of AD insoluble fraction was incubated with a tritiated reference Abeta ligand ([^3H]-Abeta-Ref) at 10 nM and increasing concentrations of non-radiolabelled example compound 1 in the range of […] to 2 μM for two hours at RT. […] The filters were analyzed on a Microbeta2 scintillation counter (PerkinElmer). Non-specific signal was determined with an excess of non-radiolabelled reference ligand (2 μM) and specific binding was calculated by subtracting the non-specific signal from the total signal. Competition was calculated as percent, where 0% was defined as the specific binding in the presence of vehicle and 100% as the values obtained in the presence of excess of the non-radiolabelled reference ligand. […]
Background: Loss of bound radioactivity is the signal in a displacement assay; it reports binding, not function.

T2 sequence (P05067 672-713 limits assumed): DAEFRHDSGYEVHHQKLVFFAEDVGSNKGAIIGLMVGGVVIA

As for `O=C1N(c2cccnc2)Cc2cc(-c3ccc(N4CC[C@H](F)C4)nc3)nn21` [Example 1, (S)-2-(6-(3-fluoropyrrolidin-1-yl)pyridin-3-yl)-5-(pyridin-3-yl)-4H-imidazo[1,5-b]pyrazol-6(5H)-one hydrochloride], the inhibition at 0.1 µM in assay [1] is 56%. Besides, in assay [1], the inhibition at 1 µM was 91%. Also, the Ki was 69 nM in assay [1] (* = mean of two independent experiments, two donors) and 360 nM in assay [2] (displacement of [3H]-Abeta-Ref (10 nM) on AD brain-derived homogenates). Further, in assay [2] (human AD brain homogenates versus PD brain binding affinity), the “Selectivity for alpha-synuclein over Abeta pathological aggregates” value was “good selectivity”.
For the compound `O=C1N(c2ccns2)Cc2cc(-c3ccc(N4CC[C@@H](F)C4)nc3)nn21` [Example 20, (R)-2-(6-(3-fluoropyrrolidin-1-yl)pyridin-3-yl)-5-(isothiazol-5-yl)-4,5-dihydro-6H-imidazo[1,5-b]pyrazol-6-one hydrogen chloride salt], in assay [1], the inhibition at 0.1 µM worked out at 85% and the inhibition at 1 µM was 87%.
For `O=C1N(c2ccns2)Cc2cc(-c3ccc(N4CC[C@H](F)C4)nc3)nn21` [Example 21, (S)-2-(6-(3-fluoropyrrolidin-1-yl)pyridin-3-yl)-5-(isothiazol-5-yl)-4,5-dihydro-6H-imidazo[1,5-b]pyrazol-6-one hydrogen chloride salt], in assay [1], the inhibition at 0.1 µM was 82% and the inhibition at 1 µM was 90%.
Take `Cn1cc(N2Cc3cc(-c4ccc(OCCF)nc4)nn3C2=O)cn1` [Example 22, 2-(6-(2-fluoroethoxy)pyridin-3-yl)-5-(1-methyl-1H-pyrazol-4-yl)-4,5-dihydro-6H-imidazo[1,5-b]pyrazol-6-one hydrogen chloride salt]: in assay [1], the inhibition at 0.1 µM stood at 45% and the inhibition at 1 µM amounted to 89%.
For `O=C1N(c2cncs2)Cc2cc(-c3ccc(OCCF)nc3)nn21` [Example 23, 2-(6-(2-fluoroethoxy)pyridin-3-yl)-5-(thiazol-5-yl)-4,5-dihydro-6H-imidazo [1,5-b] pyrazol-6-one hydrogen chloride salt] the same measures were 31% and 82%.

Broadly, the Ki is a measure of affinity in units of concentration, obtained from inhibition or displacement.
